Legend:
[1] = molecular target: NdasCDO subunit A (NdasCDO-A), cyclodipeptide oxidase subunit A from Nocardiopsis dassonvillei (Nocardiopsis dassonvillei) (UniProt D7B1W6); assay: cryo-EM structure; helical reconstruction of NdasCDO filaments; purified complex dialysed against 20 mM Tris pH 9, 200 mM NaCl, 5 mM DTT, 4 uM on the grid; local refinement with a mask over two dimers of subunit A and two dimers of subunit B
[2] = molecular target: NdasCDO subunit B (NdasCDO-B), cyclodipeptide oxidase subunit B from Nocardiopsis dassonvillei (Nocardiopsis dassonvillei) (UniProt D7B1W7); assay: as above
NdasCDO = system: T1, NdasCDO; assay: UV absorbance, initial rates; type: biochemical, Nocardiopsis dassonvillei; conditions: 50 mM Tris pH 9.0, 200 mM NaCl, 30 °C; O2 as oxidant
T1 construct: gene Ndas1146; both subunits co-expressed from pRSFDuet-1 in E. coli BL21(DE3), nickel HisTrap purified; A monomer 22 kDa, B monomer 11 kDa; filament of alternating A and B homodimers (A2B2 repeat)

Molecule | Km (NdasCDO) [µM] | further results
NdasCDO subunit A (NdasCDO-A), cyclodipeptide oxidase subunit A from Nocardiopsis dassonvillei (from UniProt D7B1W6 2-157) (enzyme) | – | stoichiometry N [1]: 2
NdasCDO subunit B (NdasCDO-B), cyclodipeptide oxidase subunit B from Nocardiopsis dassonvillei (from UniProt D7B1W7 1-105) (enzyme) | – | stoichiometry N [2]: 2
O=C1N[C@@H](Cc2c[nH]c3ccccc23)C(=O)N[C@H]1CO [cWS] | 800 | –
O=C1CNC(=O)[C@H](Cc2ccccc2)N1 [cFG] | 4200 | –
O=C1N[C@@H](Cc2c[nH]c3ccccc23)C(=O)N[C@H]1Cc1ccccc1 [cWF] | 80 | –

From publication PMC11760959, “Broad substrate scope C-C oxidation in cyclodipeptides catalysed by a flavin-dependent filament” (Nature Communications, 2025)
